Results from patent US12157746B2, “Tetrahydro-1H-pyrazino[2,1-a]isoindolylquinoline compounds for the treatment of autoimmune disease” (F. HOFFMANN-LA ROCHE AG, priority 2018, dated 2024).

biological target: T1, human TLR9 (Homo sapiens, UniProt Q9NR96); assay: HEK293-Blue-hTLR-9 cells assay; assay type: cell-based; conditions: HEK293-Blue-hTLR9 cells, ODN2006 stimulation, 20 hrs, SEAP reporter; read-out: HEK/hTLR9 IC50
T1 sequence (Q9NR96 26-1032): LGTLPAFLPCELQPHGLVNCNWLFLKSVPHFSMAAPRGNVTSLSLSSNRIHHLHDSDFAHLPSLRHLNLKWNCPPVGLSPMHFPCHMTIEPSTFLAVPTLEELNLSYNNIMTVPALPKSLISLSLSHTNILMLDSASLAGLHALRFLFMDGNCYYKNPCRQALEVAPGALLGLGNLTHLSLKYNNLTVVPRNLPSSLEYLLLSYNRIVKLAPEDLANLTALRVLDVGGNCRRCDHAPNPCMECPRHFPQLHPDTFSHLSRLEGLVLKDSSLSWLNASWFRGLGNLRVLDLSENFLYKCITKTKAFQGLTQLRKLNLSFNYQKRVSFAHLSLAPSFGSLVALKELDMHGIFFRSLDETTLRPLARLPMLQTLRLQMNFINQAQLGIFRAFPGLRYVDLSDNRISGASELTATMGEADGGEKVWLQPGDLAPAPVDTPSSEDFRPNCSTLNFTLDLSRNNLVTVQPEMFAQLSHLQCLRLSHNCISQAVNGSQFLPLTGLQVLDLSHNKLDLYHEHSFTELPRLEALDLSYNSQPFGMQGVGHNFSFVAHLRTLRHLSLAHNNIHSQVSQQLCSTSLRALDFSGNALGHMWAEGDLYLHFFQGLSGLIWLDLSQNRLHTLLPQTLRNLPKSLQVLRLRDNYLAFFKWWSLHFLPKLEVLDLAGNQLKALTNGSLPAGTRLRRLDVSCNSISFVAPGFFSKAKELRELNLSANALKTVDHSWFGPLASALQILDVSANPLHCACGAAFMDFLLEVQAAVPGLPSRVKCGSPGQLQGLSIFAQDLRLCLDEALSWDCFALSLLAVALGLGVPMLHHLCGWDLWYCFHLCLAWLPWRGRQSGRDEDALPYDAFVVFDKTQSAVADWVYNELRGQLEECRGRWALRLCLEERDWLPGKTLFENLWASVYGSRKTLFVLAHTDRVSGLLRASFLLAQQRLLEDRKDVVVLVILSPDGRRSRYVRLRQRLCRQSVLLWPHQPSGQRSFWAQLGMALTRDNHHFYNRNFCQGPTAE
From the text: HEK293-Blue-hTLR-9 Cells Assay:
A stable HEK293-Blue-hTLR-9 cell line was purchased from InvivoGen (Cat. #: hkb-htlr9, San Diego. California USA). These cells were originally designed for studying the stimulation of human TLR9 by monitoring the activation of NF-κB. A SEAP (secreted embryonic alkaline phosphatase) reporter gene was placed under the control of the IFN-β minimal promoter fused to five NF-κB and AP-1-binding sites. The SEAP was induced by activating NF-κB and AP-1 via stimulating HEK-Blue hTLR9 cells with TLR9 ligands. Therefore the reporter expression was declined by TLR9 antagonist under the stimulation of a ligand, such as ODN2006 (Cat. #: tlrl-2006-1, Invivogen, San Diego, California USA), for incubation of 20 hrs. The cell culture supernatant SEAP reporter activity was determined using QUANTI-Blue™ kit (Cat. #: rep-qb1, Invivogen, San Diego, California, USA) at a wavelength of 640 nm, a detection medium that turns purple or blue in the presence of alkaline phosphatase.
HEK293-Blue-hTLR9 cells were incubated at a density of 250.000-450,000 cells/mL in a volume of 170 μL in a 96-well plate in Dulbecco's Modified Eagle's medium (DMEM) containing 4.5 g/L glucose, 50 U/mL penicillin, […], […], 2 mM L-glutamine, 10% (v/v) heat-inactivated fetal bovine serum with addition of 20 μL test compound 1n a serial dilution in the presence of final DMSO at 1% and 10 μL of 20 uM ODN2006 in above DMEM, perform incubation under 37° C. in a CO2 incubator for 20 hrs. Then 20 μL of the supernatant from each well was incubated with 180 μL Quanti-blue substrate solution at 37° C. for 2 h and the absorbance was read at 620˜655 nm using a spectrophotometer. The signaling pathway that TLR9 activation leads to downstream NF-κB activation has been widely accepted, and therefore similar reporter assay was modified for evaluating TLR9 antagonist.

IC50 | Structure (SMILES)
0.0966 µM | C[C@@H]1CN(c2ccc(C#N)c3ncccc23)C[C@@H]2c3ccc(N[C@H]4CNC[C@H]4F)cc3CN12 [Example 30, 5-[(4R,10bS)-8-[[(3S,4R)-4-fluoropyrrolidin-3-yl]amino]-4-methyl-3,4,6,10b-tetrahydro-1H-pyrazino[2,1-a]isoindol-2-yl]quinoline-8-carbonitrile]
0.053 µM | C[C@@H]1CN(c2ccc(C#N)n3nccc23)C[C@@H]2c3ccc(N4C[C@@H](N)[C@H](O)C4)cc3CN12 [Example 110, 4-[(4R,10bS)-8-[(3R,4R)-3-amino-4-hydroxy-pyrrolidin-1-yl]-4-methyl-3,4,6,10b-tetrahydro-1H-pyrazino[2,1-a]isoindol-2-yl]pyrazolo[1,5-a]pyridine-7-carbonitrile]
0.0783 µM | C[C@@H]1CN(c2ccc(C#N)c3ncccc23)C[C@@H]2c3ccc(N4C[C@@H](N)[C@](C)(O)C4)cc3CN12 [Example 45A, 5-[(4R,10bS)-8-[(3R,4R)-4-amino-3-hydroxy-3-methyl-pyrrolidin-1-yl]-4-methyl-3,4,6,10b-tetrahydro-1H-pyrazino[2,1-a]isoindol-2-yl]quinoline-8-carbonitrile]
0.0952 µM | CO[C@H]1CN(c2ccc3c(c2)CN2[C@H](C)CN(c4ccc(C#N)c5ncccc45)C[C@H]32)C[C@@H]1N (relative stereo) [Example 16, 5-[(4R,10bS)-8-[trans-3-amino-4-methoxy-pyrrolidin-1-yl]-4-methyl-3,4,6,10b-tetrahydro-1H-pyrazino[2,1-a]isoindol-2-yl]quinoline-8-carbonitrile]
0.133 µM | C[C@@H]1CN(c2ccc(C#N)n3nccc23)C[C@@H]2c3ccc(N4CCNCC4)cc3CN12 [Example 5, 4-[(4R,10bS)-4-methyl-8-piperazin-1-yl-3,4,6,10b-tetrahydro-1H-pyrazino[2,1-a]isoindol-2-yl]pyrazolo[1,5-a]pyridine-7-carbonitrile]
0.0561 µM | C[C@@H]1CN(c2ccc(C#N)c3ncccc23)CC2c3ccc(N4C[C@H](N)[C@@H](O)C4)cc3CN21 (relative stereo) [Example 21, 5-[(4R,10bS)-8-[trans-3-amino-4-hydroxy-pyrrolidin-1-yl]-4-methyl-3,4,6,10b-tetrahydro-1H-pyrazino[2,1-a]isoindol-2-yl]quinoline-8-carbonitrile]
0.0937 µM | C[C@@H]1CN(c2ccc(C#N)c3ncccc23)C[C@@H]2c3ccc(N[C@H]4CNC[C@@H]4F)cc3CN12 [Example 31, 5-[(4R,10bS)-8-[[(3S,4S)-4-fluoropyrrolidin-3-yl]amino]-4-methyl-3,4,6,10b-tetrahydro-1H-pyrazino[2,1-a]isoindol-2-yl]quinoline-8-carbonitrile]
0.0668 µM | C[C@@H]1CN(c2ccc(C#N)c3ncccc23)C[C@@H]2c3ccc(N4CC5(CN(C)C5)C4)cc3CN12 [Example 38, 5-[(4R,10bS)-4-methyl-8-(6-methyl-2,6-diazaspiro[3.3]heptan-2-yl)-3,4,6,10b-tetrahydro-1H-pyrazino[2,1-a]isoindol-2-yl]quinoline-8-carbonitrile]
0.103 µM | C[C@@H]1CN(c2ccc(C#N)c3ncccc23)C[C@@H]2c3ccc(N4CC5(CCN5)C4)cc3CN12 [Example 37, 5-[(4R,10bS)-8-(1,6-diazaspiro[3.3]heptan-6-yl)-4-methyl-3,4,6,10b-tetrahydro-1H-pyrazino[2,1-a]isoindol-2-yl]quinoline-8-carbonitrile]
0.146 µM | C[C@@H]1CN(c2ccc(C#N)c3ncccc23)C[C@@H]2c3ccc(N4C[C@@H](N)[C@@H](F)C4)cc3CN12 [Example 47, 5-[(4R,10bS)-8-[(3R,4S)-3-amino-4-fluoro-pyrrolidin-1-yl]-4-methyl-3,4,6,10b-tetrahydro-1H-pyrazino[2,1-a]isoindol-2-yl]quinoline-8-carbonitrile]
0.0869 µM | C[C@@H]1CN(c2ccc(C#N)c3ncccc23)C[C@@H]2c3ccc(N4CC[C@@H](N)C4)cc3CN12 [Example 20, 5-[(4R,10bS)-8-[(3R)-3-aminopyrrolidin-1-yl]-4-methyl-3,4,6,10b-tetrahydro-1H-pyrazino[2,1-a]isoindol-2-yl]quinoline-8-carbonitrile]
